Results reported in ChEMBL document CHEMBL5038675, “Selective A3 Adenosine Receptor Antagonist Radioligand for Human and Rodent Species” (ACS Med Chem Lett, 2022).
Blank lines part the entries; values can stand above or below the compound they belong to.

Tests used:
Adenosine receptor A3 [1] = target: T1, Adenosine receptor A3 (Rattus norvegicus, UniProt P28647); assay: Binding affinity to rat adenosine A3 receptor measured by radioligand binding assay
T1 sequence (P28647 whole entry): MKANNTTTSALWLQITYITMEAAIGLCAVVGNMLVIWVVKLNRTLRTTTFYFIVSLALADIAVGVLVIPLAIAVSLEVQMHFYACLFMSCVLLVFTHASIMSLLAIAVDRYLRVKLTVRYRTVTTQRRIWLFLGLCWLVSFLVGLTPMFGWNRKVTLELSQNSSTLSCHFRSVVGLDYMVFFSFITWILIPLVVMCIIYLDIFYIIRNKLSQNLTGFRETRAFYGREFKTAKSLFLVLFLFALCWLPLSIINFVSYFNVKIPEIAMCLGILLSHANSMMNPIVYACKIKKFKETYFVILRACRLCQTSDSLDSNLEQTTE

Adenosine receptor A3 [2] = target: T2, Adenosine receptor A3 (Mus musculus, UniProt Q61618); assay: Binding affinity to mouse adenosine A3 receptor measured by radioligand binding assay
T2 sequence (Q61618 whole entry): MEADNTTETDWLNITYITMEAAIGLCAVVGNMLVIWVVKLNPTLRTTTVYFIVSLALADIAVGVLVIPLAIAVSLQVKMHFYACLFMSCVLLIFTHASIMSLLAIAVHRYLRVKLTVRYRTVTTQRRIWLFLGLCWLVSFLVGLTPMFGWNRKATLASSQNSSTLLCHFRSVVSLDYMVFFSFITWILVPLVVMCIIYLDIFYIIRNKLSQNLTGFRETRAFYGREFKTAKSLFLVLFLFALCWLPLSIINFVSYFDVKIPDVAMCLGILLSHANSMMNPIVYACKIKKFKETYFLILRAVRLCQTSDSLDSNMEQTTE

Adenosine receptor A2a [3] = target: T3, Adenosine receptor A2a (Homo sapiens, UniProt P29274); assay: Displacement of [3H] ZM241385 from human adenosine A2A receptor expressed in HEK293 cells incubated for 60 mins by radioligand binding assay; format: cell-based
[4] = target: T4, Adenosine receptor A1 (Homo sapiens) (UniProt P30542); assay: Displacement of [3H] DPCPX from human adenosine A1 receptor expressed in HEK293 cells at 10 uM incubated for 60 mins by radioligand binding assay; format: cell-based
T4 sequence (whole entry): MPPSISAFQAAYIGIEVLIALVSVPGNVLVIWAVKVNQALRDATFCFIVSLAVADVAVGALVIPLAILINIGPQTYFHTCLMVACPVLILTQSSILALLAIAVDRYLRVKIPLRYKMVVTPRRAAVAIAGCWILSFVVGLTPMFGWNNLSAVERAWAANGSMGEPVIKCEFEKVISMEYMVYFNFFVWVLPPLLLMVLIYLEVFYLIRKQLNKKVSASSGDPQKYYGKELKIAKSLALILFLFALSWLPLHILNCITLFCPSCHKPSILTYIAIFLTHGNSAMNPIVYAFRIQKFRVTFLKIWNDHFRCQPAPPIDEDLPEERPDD

Adenosine receptor A3 [5] = target: T5, Adenosine receptor A3 (Homo sapiens, UniProt P0DMS8); format: cell-based, HEK293
T5 sequence (P0DMS8 whole entry): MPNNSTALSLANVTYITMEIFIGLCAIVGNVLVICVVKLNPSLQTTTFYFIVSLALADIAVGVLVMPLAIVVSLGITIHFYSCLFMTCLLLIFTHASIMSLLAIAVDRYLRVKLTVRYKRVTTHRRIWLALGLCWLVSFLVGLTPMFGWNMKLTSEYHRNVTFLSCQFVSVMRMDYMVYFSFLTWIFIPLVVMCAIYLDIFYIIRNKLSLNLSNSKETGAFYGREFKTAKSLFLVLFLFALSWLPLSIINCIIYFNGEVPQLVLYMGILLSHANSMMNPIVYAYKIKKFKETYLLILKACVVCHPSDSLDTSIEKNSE

Adenosine receptor A3 [6] = target: T2, Adenosine receptor A3; format: cell-based, HEK293
Adenosine receptor A2a [7] = target: T3, Adenosine receptor A2a; assay: Displacement of [3H] ZM241385 from human adenosine A2A receptor expressed in HEK293 cells at 10 uM incubated for 60 mins by radioligand binding assay; format: cell-based
[8] = target: Adenosine receptor A2b (Homo sapiens) (UniProt P29275); assay: Displacement of [3H] DPCPX from human adenosine A2B receptor expressed in HEK293 cells at 10 uM incubated for 60 mins by radioligand binding assay; format: cell-based
[9] = target: Adenosine receptor A2a (Mus musculus) (UniProt Q60613); assay: Displacement of [3H] ZM241385 from mouse adenosine A2A receptor expressed in HEK293 cells at 10 uM incubated for 60 mins by radioligand binding assay; format: cell-based
[10] = target: Adenosine receptor A2b (Rattus norvegicus) (UniProt P29276); assay: Displacement of [3H] DPCPX from rat adenosine A2B receptor expressed in HEK293 cells at 10 uM incubated for 60 mins by radioligand binding assay; format: cell-based
[11] = target: Adenosine receptor A2a (Rattus norvegicus) (UniProt P30543); assay: Displacement of [3H] ZM241385 from rat adenosine A2A receptor expressed in HEK293 cells at 10 uM incubated for 60 mins by radioligand binding assay; format: cell-based
Adenosine receptor A3 [12] = target: T1, Adenosine receptor A3; format: cell-based, HEK293
[13] = target: Adenosine receptor A2b (Mus musculus) (UniProt Q60614); assay: Displacement of [3H] DPCPX from mouse adenosine A2B receptor expressed in HEK293 cells at 10 uM incubated for 60 mins by radioligand binding assay; format: cell-based
[14] = target: Adenosine receptor A1 (Rattus norvegicus) (UniProt P25099); assay: Displacement of [3H] DPCPX from rat adenosine A1 receptor expressed in HEK293 cells at 10 uM incubated for 60 mins by radioligand binding assay; format: cell-based
[15] = target: Adenosine receptor A1 (Mus musculus) (UniProt Q60612); assay: Displacement of [3H] DPCPX from mouse adenosine A1 receptor expressed in HEK293 cells at 10 uM incubated for 60 mins by radioligand binding assay; format: cell-based
Adenosine receptor A3 [16] = target: T2, Adenosine receptor A3; assay: Binding affinity to mouse adenosine A3 receptor expressed in HEK293 cells measured by radioligand binding assay; format: cell-based
Adenosine receptor A3 [17] = target: T1, Adenosine receptor A3; assay: Binding affinity to rat adenosine A3 receptor expressed in HEK293 cells measured by radioligand binding assay; format: cell-based

T3 sequence (P29274 whole entry): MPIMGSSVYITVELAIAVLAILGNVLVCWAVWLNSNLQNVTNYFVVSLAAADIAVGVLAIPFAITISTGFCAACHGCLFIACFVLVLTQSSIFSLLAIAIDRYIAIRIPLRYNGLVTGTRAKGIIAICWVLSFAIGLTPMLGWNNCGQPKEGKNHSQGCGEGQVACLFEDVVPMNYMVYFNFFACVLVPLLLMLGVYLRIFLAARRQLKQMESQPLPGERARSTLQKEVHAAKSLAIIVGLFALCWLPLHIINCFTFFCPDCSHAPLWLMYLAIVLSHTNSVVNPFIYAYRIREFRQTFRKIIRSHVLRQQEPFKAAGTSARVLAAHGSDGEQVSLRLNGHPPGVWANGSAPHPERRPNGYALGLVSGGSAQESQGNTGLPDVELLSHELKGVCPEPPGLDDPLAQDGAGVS
Sequence of Adenosine receptor A2b (Homo sapiens) (P29275 whole entry): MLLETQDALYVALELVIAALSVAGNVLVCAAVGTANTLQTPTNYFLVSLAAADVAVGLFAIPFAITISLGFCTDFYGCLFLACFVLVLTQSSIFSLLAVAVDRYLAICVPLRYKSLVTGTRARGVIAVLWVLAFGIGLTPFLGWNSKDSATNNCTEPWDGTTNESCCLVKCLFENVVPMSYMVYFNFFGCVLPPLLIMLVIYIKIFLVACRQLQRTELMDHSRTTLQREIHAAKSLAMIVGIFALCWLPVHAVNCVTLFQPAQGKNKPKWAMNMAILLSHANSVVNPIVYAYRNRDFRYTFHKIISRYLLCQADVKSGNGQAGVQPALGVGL
Sequence of Adenosine receptor A1 (Rattus norvegicus) (P25099 whole entry): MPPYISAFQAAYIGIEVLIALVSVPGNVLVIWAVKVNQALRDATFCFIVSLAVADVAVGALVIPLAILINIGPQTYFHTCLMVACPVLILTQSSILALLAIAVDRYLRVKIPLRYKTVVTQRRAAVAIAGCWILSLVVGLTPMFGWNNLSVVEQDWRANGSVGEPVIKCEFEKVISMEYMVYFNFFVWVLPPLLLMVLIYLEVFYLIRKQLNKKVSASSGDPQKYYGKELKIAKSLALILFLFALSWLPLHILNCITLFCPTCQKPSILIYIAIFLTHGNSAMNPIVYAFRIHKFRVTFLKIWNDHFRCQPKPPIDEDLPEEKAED
Sequence of Adenosine receptor A2a (Mus musculus) (Q60613 whole entry): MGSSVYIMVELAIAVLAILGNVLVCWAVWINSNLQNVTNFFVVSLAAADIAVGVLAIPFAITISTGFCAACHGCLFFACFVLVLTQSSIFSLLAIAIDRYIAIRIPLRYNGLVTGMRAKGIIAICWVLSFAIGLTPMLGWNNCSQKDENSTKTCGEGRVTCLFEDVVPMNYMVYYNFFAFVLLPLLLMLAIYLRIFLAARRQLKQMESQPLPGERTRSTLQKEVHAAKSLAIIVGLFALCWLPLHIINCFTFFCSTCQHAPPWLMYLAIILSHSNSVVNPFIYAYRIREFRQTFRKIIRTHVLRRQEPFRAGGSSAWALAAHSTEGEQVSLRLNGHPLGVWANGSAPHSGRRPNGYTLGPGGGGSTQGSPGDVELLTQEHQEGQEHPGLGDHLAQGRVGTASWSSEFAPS
Sequence of Adenosine receptor A2a (Rattus norvegicus) (P30543 whole entry): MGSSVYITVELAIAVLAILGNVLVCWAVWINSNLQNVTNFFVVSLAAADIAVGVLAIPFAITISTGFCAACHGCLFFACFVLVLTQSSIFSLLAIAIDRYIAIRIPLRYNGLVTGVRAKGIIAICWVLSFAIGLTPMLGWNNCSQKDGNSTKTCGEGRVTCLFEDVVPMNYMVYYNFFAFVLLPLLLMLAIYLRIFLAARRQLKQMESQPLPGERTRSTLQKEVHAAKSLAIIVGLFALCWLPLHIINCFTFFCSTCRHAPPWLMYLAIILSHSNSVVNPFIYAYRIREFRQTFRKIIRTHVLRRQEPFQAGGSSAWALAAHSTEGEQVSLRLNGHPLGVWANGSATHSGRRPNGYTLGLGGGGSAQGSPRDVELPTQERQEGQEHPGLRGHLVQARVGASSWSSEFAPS
Sequence of Adenosine receptor A2b (Rattus norvegicus) (P29276 whole entry): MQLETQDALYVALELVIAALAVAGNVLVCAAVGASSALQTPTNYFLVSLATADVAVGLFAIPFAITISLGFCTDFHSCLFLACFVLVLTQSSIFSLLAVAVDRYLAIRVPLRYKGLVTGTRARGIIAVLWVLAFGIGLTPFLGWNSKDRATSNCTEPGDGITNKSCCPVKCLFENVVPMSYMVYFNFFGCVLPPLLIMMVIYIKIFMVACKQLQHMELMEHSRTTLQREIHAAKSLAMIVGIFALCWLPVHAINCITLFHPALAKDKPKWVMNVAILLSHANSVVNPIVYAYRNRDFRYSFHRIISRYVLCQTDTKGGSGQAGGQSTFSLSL
Sequence of Adenosine receptor A1 (Mus musculus) (Q60612 whole entry): as the sequence (P25099 whole entry) above, with V151E, D155A, R157I, D316E, L319I, E325D counted along it
Sequence of Adenosine receptor A2b (Mus musculus) (Q60614 whole entry): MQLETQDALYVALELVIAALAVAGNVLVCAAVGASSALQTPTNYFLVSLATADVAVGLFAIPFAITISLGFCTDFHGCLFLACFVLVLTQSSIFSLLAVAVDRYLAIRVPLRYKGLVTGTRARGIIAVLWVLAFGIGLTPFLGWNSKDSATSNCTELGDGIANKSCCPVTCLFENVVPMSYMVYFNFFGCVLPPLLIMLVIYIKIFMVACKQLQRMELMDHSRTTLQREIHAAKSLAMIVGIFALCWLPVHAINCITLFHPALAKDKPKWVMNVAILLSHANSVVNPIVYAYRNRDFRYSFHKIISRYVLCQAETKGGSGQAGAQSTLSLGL

Compound: CNC(=O)[C@@]12C[C@@H]1[C@@H](n1cnc3c(NCc4cccc(I)c4)nc(Cl)nc31)[C@H](O)[C@@H]2O
Kd (Adenosine receptor A3 [1]): 0.17 nM

Compound: CCCn1cc2c(nc(NC(=O)Nc3ccc(OC)cc3)n3nc(-c4ccco4)nc23)n1
Ki (Adenosine receptor A3 [1]): > 10000 nM | Ki (Adenosine receptor A3 [2]): > 10000 nM

Compound: CC[C@@H]1CN2C(=O)N(C)c3nc(-c4ccccc4)[nH]c3C2=N1
Ki (Adenosine receptor A3 [1]): > 10000 nM | Ki (Adenosine receptor A3 [2]): 6360 nM

Compound: CCCOC(=O)c1c(-c2ccccc2)nc(CC)c(C(=O)SCC)c1CCC
Ki (Adenosine receptor A3 [6]): 349 nM | inhibition (Adenosine receptor A2a [7]): 16.4% | inhibition [8]: 34.5% | inhibition [9]: 25.1% | inhibition [4]: 35.4% | inhibition [10]: 38.8% | Ki (Adenosine receptor A3 [5]): 43.9 nM | inhibition [11]: 7.4% | Ki (Adenosine receptor A3 [12]): 216 nM | inhibition [13]: 20.2% | inhibition [14]: 25.5% | inhibition [15]: 27.4%

Results, then the compound that gave them:

Ki (Adenosine receptor A2a [3]): > 1000 nM | inhibition [4]: 38% | Ki (Adenosine receptor A3 [5]): 26.6 nM
Compound: Cc1cc(C)cc(-c2nc(NC(=O)c3cncc(Br)c3)sc2-c2ccncc2)c1

Kd (Adenosine receptor A3 [16]): 3.74 nM | Kd (Adenosine receptor A3 [17]): 2.8 nM
Compound: [3H]c1cncc(C(=O)Nc2nc(-c3cc(C)cc(C)c3)c(-c3ccncc3)s2)c1
